{"source": "paper PMC11695783", "about": "(Frontiers in Pharmacology, 2024)", "assay": "Pharmacokinetic studies in mice (intravenous and intramuscular, plasma, HPLC-MS/MS)", "format": "in vivo, BALB/c mice", "parameters": "AUClast / AUCall / AUCINF_obs / AUCINF_pred / AUCINFobs: concentration or dose not given beside the values; Tlast / Clast / AUMClast / AUMCINF_obs / AUMCINF_pred / Lambda_z / HL_Lambda_z / Cl_obs / Cl_pred / Cl_F_obs / Tlag / Cl_F_pred: unit not given here", "settings": "IV; for plasma concentration: individual mice 1-8; for plasma concentration, AV: average of mice", "description": "Pharmacokinetic experimental procedures of compound 16C were measured according to previous reports with some modifications ([Wang et al., 2022]). In brief, BALB/c mice were divided into two groups of eight mice each; one group was injected intravenously and the other was injected intramuscularly with compound 16C at a dose of 10 mg/kg. The dose was based on previous studies of novel pleuromutilin derivatives ([Jin et al., 2019]; [Wang et al., 2022]). Meanwhile, the dose of tiamulin approved by the European Union for intramuscular administration is 10–20 mg/kg ([EMA, 1999]). The volume of the injection was 0.1 mL/10 g. The compound 16C formulation was a filtered solution in 5% DMSO, 5% Tween-80, and 90% normal saline. Blood was obtained from eight mice via the ocular venous plexus at 0.083, 0.167, 0.25, 0.334, 0.5, 0.75, 1, 1.5, 2, 3, 4, 6, 8, and 12 h following tail intravenous or thigh Intramuscular injection. A glass capillary with a diameter of 0.3 mm was inserted into the outer canthus of the mouse, and 200 μL blood was collected using a 1.5 mL anticoagulant centrifuge tube. The blood was centrifuged at 3,000 rpm for 10 min to obtain plasma. 100 μL of plasma was aspirated for drug concentration detection, and eight parallel samples from different mice were obtained at each time point.\nAll pharmacokinetic experimental samples and method validation samples were added with 4 times the volume of acetonitrile and shaken for 1 min, centrifuged at high speed at 13,000× g for 10 min, and the supernatants were taken and filtered to detect the drug concentration. Some samples with high concentrations were diluted to the linear range prior to analysis.\nThe extracted samples were analyzed using a high-performance liquid chromatography-tandem mass spectrometry (HPLC-MS/MS) system (Agilent, Santa Clara, CA, United States) 1200 HPLC and Applied Biosystems (Waltham, MA, United States) API 4000 mass spectrometer). HPLC-MS/MS analysis using a Zorbax Eclipse XDB-C18 (4.6 × 50 mm, 3.5 μm) column (Agilent). The mobile phase A (acetonitrile) and B (water) were applied as a gradient as follows: 0–3 min: 15%–95% A and maintain from 3 min to 5 min at 95% A. 5–5.1 min: 95%–15% A and maintain from 5.1 to 10 min at 15% A. Flow rate: 500 μL/min; column temperature: 30°C and injection volume: 4 μL. The electrospray ionization (ESI) source of the mass spectrometer was operated in […], with the following ion source parameters: ion spray voltage 4,500 V, collision gas 7 psi, ion source gas 1 55 psi, ion source gas 2 40 psi, curtain gas 20 psi, source temperature 600°C. The precursor ion m/z of Compound 16C was 633.3, and the product ions m/z were 272.0 (quantifier) 286.9 and 313.0. Declustering potentials (DP) were 140, 140, and 144 V, respectively; entrance potential (EP) was 10 V; collision energy (CE) was 55, 46, and 15 V, respectively; and collision cell exit potential (CXP) was 14 V.\n[…] Pharmacokinetic parameters include time to maximum concentration (Tmax), maximum concentration (Cmax), the area under the plasma concentration–time curve (AUC0-∞), clearance rate (CL), the apparent volume of distribution (Vd), bioavailability (F), elimination half-life (T1/2kel) and absorption half-life (T1/2ka).", "note": "Where “and” joins values, the source holds several entries; their conditions need not be identical. Equal values may be shown once.", "data": [{"smiles": "C=C[C@]1(C)C[C@@H](OC(=O)CSc2ccc(NC(=O)Cc3ccc([N+](=O)[O-])cc3)cc2)[C@]2(C)[C@H](C)CC[C@]3(CCC(=O)[C@H]32)[C@@H](C)[C@@H]1O", "values": [{"measurement": "plasma concentration", "setting": "0.083h", "result": "4.18 ng/mL and 5.51 ng/mL and 3.62 ng/mL and 4.5 ng/mL and 6.77 ng/mL and 4.82 ng/mL and 6.27 ng/mL and 4.14 ng/mL"}, {"measurement": "plasma concentration, AV", "setting": "0.17h", "result": 2.954, "unit": "ng/mL"}, {"measurement": "plasma concentration", "setting": "0.17h", "result": "2.24 ng/mL and 3.08 ng/mL and 2.67 ng/mL and 1.93 ng/mL and 4.06 ng/mL and 3.1 ng/mL and 3.5 ng/mL and 3.05 ng/mL"}, {"measurement": "plasma concentration, AV", "setting": "0.25h", "result": 1.9525, "unit": "ng/mL"}, {"measurement": "plasma concentration", "setting": "0.25h", "result": "1.53 ng/mL and 1.91 ng/mL and 1.97 ng/mL and 1.44 ng/mL and 2.52 ng/mL and 1.83 ng/mL and 2.17 ng/mL and 2.25 ng/mL"}, {"measurement": "plasma concentration, AV", "setting": "0.33h", "result": 1.413, "unit": "ng/mL"}, {"measurement": "plasma concentration", "setting": "0.33h", "result": "1.05 ng/mL and 1.59 ng/mL and 1.43 ng/mL and 0.752 ng/mL and 1.83 ng/mL and 1.19 ng/mL and 1.81 ng/mL and 1.65 ng/mL"}, {"measurement": "plasma concentration, AV", "setting": "0.5h", "result": 0.9296, "unit": "ng/mL"}, {"measurement": "plasma concentration", "setting": "0.5h", "result": "0.563 ng/mL and 0.856 ng/mL and 1.02 ng/mL and 0.564 ng/mL and 1.49 ng/mL and 0.788 ng/mL and 0.986 ng/mL and 1.17 ng/mL"}, {"measurement": "plasma concentration, AV", "setting": "0.75h", "result": 0.4375, "unit": "ng/mL"}, {"measurement": "plasma concentration", "setting": "0.75h", "result": "0.295 ng/mL and 0.454 ng/mL and 0.34 ng/mL and 0.281 ng/mL"}, {"measurement": "plasma concentration, AV", "setting": "1h", "result": 0.1263, "unit": "ng/mL"}, {"measurement": "plasma concentration, AV", "setting": "1.5h", "result": 0.0633, "unit": "ng/mL"}, {"measurement": "plasma concentration, AV", "setting": "2h", "result": 0.03673, "unit": "ng/mL"}, {"measurement": "plasma concentration, AV", "setting": "3h", "result": 0.01748, "unit": "ng/mL"}, {"measurement": "plasma concentration, AV", "setting": "4h", "result": 0.01406, "unit": "ng/mL"}, {"measurement": "plasma concentration, AV", "setting": "6h", "result": 0.005976, "unit": "ng/mL"}, {"measurement": "plasma concentration, AV", "setting": "8h", "result": 0.004256, "unit": "ng/mL"}, {"measurement": "plasma concentration, AV", "setting": "12h", "result": 0.002617, "unit": "ng/mL"}, {"measurement": "AUCINF_obs", "setting": "individual mice", "result": "1731 and 1454.8 and 1871.31 and 1501.72 and 1496.6 and 2594.18 and 1738.12 and 2317.09"}, {"measurement": "AUCINF_pred", "setting": "individual mice", "result": "1730.96 and 1454.56 and 1871.3 and 1501.69 and 1496.6 and 2594.16 and 1737.96 and 2317.08"}, {"measurement": "AUC_%Back_Ext_obs", "setting": "individual mice", "result": "23.2101% and 33.5458% and 33.5029% and 23.3787% and 40.4621% and 28.4699% and 29.0426% and 30.8151%"}, {"measurement": "AUC_%Back_Ext_pred", "setting": "individual mice", "result": "23.2107% and 33.5513% and 33.5032% and 23.3791% and 40.462% and 28.47% and 29.0454% and 30.8152%"}, {"measurement": "AUC_%Extrap_obs", "setting": "individual mice", "result": "1.0811% and 0.9306% and 0.1046% and 0.8821% and 0.3771% and 0.7545% and 1.237% and 1.2773%"}, {"measurement": "AUC_%Extrap_pred", "setting": "individual mice", "result": "1.0785% and 0.9144% and 0.1039% and 0.8804% and 0.3773% and 0.754% and 1.2276% and 1.277%"}, {"measurement": "AUCall", "setting": "individual mice", "result": "1712.29 and 1441.26 and 1869.35 and 1488.47 and 1490.96 and 2574.6 and 1716.62 and 2287.49"}, {"measurement": "AUClast", "setting": "individual mice", "result": "1712.29 and 1441.26 and 1869.35 and 1488.47 and 1490.96 and 2574.6 and 1716.62 and 2287.49"}, {"measurement": "AUMCINF_obs", "setting": "individual mice", "result": "945.518 and 756.201 and 591.051 and 764.612 and 715.375 and 1415.53 and 1084.7 and 1445.93"}, {"measurement": "AUMCINF_pred", "setting": "individual mice", "result": "944.931 and 753.432 and 590.916 and 764.278 and 715.413 and 1415.38 and 1082.77 and 1445.86"}, {"measurement": "AUMC_%Extrap_obs", "setting": "individual mice", "result": "25.4794% and 20.837% and 3.3902% and 21.6397% and 12.7428% and 15.3656% and 22.9491% and 23.7174%"}, {"measurement": "AUMC_%Extrap_pred", "setting": "individual mice", "result": "25.4331% and 20.546% and 3.368% and 21.6055% and 12.7474% and 15.3562% and 22.812% and 23.7133%"}, {"measurement": "AUMClast", "setting": "individual mice", "result": "704.605 and 598.632 and 571.014 and 599.152 and 624.216 and 1198.03 and 835.77 and 1103"}, {"measurement": "C0", "setting": "individual mice", "result": "5541.15 and 7579.63 and 9597.07 and 4839.8 and 10091.7 and 11026.6 and 7343.77 and 10935.2"}, {"measurement": "Cl_obs", "setting": "individual mice", "result": "0.0069 and 0.0053 and 0.0067 and 0.0039 and 0.0058 and 4315.76"}, {"measurement": "Cl_pred", "setting": "individual mice", "result": "0.0069 and 0.0053 and 0.0067 and 0.0039 and 0.0058 and 4315.77"}, {"measurement": "Clast", "setting": "individual mice", "result": "3.84 and 3.72 and 0.875 and 2.95 and 1.36 and 6.29 and 6.01 and 8.25"}, {"measurement": "Cmax", "setting": "individual mice", "result": "4140 and 4180 and 5510 and 3620 and 4500 and 6770 and 4820 and 6270"}, {"measurement": "HL_Lambda_z", "setting": "individual mice", "result": "3.378 and 2.5225 and 1.5506 and 3.1126 and 2.8768 and 2.157 and 2.4798 and 2.4866"}, {"measurement": "Tlast", "setting": "individual mice", "result": "8 and 12"}, {"measurement": "Cmax_D", "setting": "individual mice, dose-normalised, in µg/mL", "result": "0.0004 and 418 and 551 and 362 and 450 and 677 and 482"}, {"measurement": "Lambda_z", "setting": "individual mice, non-compartmental analysis", "result": "0.2052 and 0.2748 and 0.447 and 0.2227 and 0.2409 and 0.3213 and 0.2795 and 0.2788"}, {"measurement": "MRTINF_obs", "setting": "individual mice, in h", "result": "0.5462 and 0.5198 and 0.3158 and 0.5092 and 0.478 and 0.5457 and 0.6241 and 0.624"}, {"measurement": "MRTINF_pred", "setting": "individual mice, in h", "result": "0.5459 and 0.518 and 0.3158 and 0.5089 and 0.478 and 0.5456 and 0.623 and 0.624"}, {"measurement": "MRTlast", "setting": "individual mice, in h", "result": "0.4115 and 0.4154 and 0.3055 and 0.4025 and 0.4187 and 0.4653 and 0.4869 and 0.4822"}, {"measurement": "Tmax", "setting": "individual mice, in h", "result": 0.083}]}]}
